Data set [1] can be described thus: Radiometabolic analysis in mouse brain homogenate. The class given is in vivo. To be noted: 30 min post tracer administration. The method, then:
With the established good BBB penetration ability of [^18F]4, we then performed ex vivo biodistribution studies to obtain more in-depth information on the whole-body distribution and clearance of [^18F]4. Mice were sorted into four groups based on their survival intervals (5, 15, 30, and 60 min) after intravenous administration of [^18F]4. […] To investigate the in vivo stability of [^18F]4 in mouse brains, we conducted a radiometabolic analysis in mouse brain homogenate at 30 min post tracer administration.

Data set [2] has as its target T1, LRRK2 (Rattus norvegicus, UniProt F1LNJ1).
T1 construct: from tissue; host or cells: rat brain (Sprague-Dawley rats)
Briefly: In vitro autoradiography in rat brain sections. The class given is binding. The method, then: The general procedure for autoradiography studies was described previously with minor revision in this work.[36],[40] Brain sections from rats were preincubated with Tris-HCl buffer (50 mM), MgCl2 (1.2 mM) and CaCl2 (2 mM) solution for 20 min at ambient temperature, followed by incubation with [^11C]3 and [^18F]4 (0.48 nM). […] After incubation, brain sections were rinsed with ice-cold buffer 3 times for 2 min and dipped in cold distilled water for 10 s. The brain sections were dried with cold air and then placed on imaging plates (BAS-MS2025, GE Healthcare, NJ) for optimized contact periods. Autoradiograms were obtained and regions of interest (ROIs) were carefully drawn with the reference of naked-eye observation. Radioactivity was measured using an Amersham Typhoon 5 analyzer system and expressed as photostimulated luminescence values per unit area (PSL/mm^2) or normalized to % of radioactivity vs control.

T1 sequence (F1LNJ1 1-2526): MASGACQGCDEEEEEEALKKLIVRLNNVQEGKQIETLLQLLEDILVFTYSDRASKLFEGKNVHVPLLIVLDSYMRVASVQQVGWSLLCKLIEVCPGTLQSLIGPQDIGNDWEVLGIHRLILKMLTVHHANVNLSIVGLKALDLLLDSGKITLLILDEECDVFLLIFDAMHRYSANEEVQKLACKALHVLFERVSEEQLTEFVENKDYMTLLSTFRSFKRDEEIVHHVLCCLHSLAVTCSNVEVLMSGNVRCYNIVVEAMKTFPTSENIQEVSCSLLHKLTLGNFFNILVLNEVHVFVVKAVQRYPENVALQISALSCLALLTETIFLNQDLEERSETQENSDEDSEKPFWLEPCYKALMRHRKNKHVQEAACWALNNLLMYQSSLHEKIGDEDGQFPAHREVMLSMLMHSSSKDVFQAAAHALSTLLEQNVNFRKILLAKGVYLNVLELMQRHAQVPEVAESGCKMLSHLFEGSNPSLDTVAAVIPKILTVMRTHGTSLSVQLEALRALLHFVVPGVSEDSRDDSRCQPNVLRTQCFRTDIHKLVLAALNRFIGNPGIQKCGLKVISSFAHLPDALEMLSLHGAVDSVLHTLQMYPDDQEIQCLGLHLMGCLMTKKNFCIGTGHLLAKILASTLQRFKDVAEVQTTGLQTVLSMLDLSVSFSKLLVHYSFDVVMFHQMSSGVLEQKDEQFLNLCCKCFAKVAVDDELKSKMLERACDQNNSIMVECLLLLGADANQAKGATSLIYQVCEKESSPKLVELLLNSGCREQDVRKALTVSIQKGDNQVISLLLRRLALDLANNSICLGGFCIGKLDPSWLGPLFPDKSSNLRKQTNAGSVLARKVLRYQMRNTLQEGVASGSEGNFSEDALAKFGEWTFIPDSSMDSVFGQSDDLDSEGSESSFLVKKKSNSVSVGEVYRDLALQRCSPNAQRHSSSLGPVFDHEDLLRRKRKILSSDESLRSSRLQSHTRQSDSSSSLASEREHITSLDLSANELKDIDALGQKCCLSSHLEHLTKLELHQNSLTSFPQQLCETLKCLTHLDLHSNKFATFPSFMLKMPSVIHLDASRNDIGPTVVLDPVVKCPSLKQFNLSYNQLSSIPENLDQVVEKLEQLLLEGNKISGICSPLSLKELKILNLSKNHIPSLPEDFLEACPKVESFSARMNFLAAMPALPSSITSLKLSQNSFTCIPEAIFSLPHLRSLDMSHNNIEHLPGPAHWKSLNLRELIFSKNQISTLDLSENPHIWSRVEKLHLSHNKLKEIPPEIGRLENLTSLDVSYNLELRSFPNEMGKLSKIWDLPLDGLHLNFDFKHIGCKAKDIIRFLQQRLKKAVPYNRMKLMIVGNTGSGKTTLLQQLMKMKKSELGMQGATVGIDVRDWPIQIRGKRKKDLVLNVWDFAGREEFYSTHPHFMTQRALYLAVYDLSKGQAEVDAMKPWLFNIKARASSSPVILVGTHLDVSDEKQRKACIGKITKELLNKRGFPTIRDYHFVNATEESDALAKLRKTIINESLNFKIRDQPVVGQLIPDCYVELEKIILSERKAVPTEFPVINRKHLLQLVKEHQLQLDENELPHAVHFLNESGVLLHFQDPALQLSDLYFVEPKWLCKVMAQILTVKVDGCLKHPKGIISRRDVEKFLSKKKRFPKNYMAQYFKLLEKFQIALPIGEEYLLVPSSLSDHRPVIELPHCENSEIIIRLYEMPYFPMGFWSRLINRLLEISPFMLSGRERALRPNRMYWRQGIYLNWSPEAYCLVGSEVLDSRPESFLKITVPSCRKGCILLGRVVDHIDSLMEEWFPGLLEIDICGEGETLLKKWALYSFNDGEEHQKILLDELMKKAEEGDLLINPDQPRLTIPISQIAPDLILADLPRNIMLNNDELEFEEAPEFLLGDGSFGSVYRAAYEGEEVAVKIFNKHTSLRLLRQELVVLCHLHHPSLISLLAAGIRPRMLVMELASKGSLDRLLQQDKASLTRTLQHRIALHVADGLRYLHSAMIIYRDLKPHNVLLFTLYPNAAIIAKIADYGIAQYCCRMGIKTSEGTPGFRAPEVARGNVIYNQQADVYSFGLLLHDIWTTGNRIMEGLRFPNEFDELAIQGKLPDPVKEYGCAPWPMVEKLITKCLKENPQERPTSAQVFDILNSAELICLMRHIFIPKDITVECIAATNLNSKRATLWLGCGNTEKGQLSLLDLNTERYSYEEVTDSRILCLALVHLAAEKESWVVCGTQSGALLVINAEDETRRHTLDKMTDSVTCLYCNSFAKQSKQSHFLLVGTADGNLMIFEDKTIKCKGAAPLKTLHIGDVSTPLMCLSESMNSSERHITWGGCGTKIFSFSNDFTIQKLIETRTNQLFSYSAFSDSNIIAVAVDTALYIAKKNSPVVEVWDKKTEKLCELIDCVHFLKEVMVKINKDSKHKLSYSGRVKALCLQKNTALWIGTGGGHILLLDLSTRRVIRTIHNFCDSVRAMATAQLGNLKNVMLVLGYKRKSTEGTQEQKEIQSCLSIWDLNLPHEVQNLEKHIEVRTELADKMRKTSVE

As to `N#Cc1cccc(-c2c[nH]c3ncnc(N4CCOCC4)c23)c1[18F]` [[^18F]4], the “parent fraction in mouse brain homogenate” value in data set [1] is 69%. In addition, the “radioactivity levels under blocking with GNE-0877” value was “no obvious blocking results” in data set [2] (LRRK2-deficient brain regions (cerebellum and midbrain)); “significantly reduced” in data set [2] (LRRK2-rich brain regions (hippocampus, cerebral cortex, striatum, thalamus)).

These data come from PMC10895652, “Preclinical Evaluation of Novel Positron Emission Tomography (PET) Probes for Imaging Leucine-Rich Repeat Kinase 2 (LRRK2)” (Journal of Medicinal Chemistry, 2024).
